One molecule from patent US12447167B2, “GM-CSF-producing t-cell control agent and Th1/Th2 immune balance regulator” (National Center of Neurology and Psychiatry, priority 2014, dated 2025) can be followed below.

The assay has as its system IL-17. Nature of the assay: IL-17 expression level of sorted CD4-positive memory T-cells of MS patients (ELISA of culture supernatant). Format: in vivo, human. The note with it: 0.3 mg single oral. As to the method:
A single dose of compound 31, which is a synthetic glycolipid of the present invention, described in the first aspect was orally administered to each of 2 MS patients (subjects) shown in Table 2 above after obtainment of informed consent. The dose was set to 0.3 mg per person.
Subsequently, T-cell subfractions were prepared from the peripheral blood of each subject by using the density gradient centrifugation method. First, a total of 20 mL of blood was collected from the vein of each subject 24 hours (1st day), 48 hours (2nd day), 72 hours (3rd day), 168 hours (7th day), and 192 hours (8th day) after the administration of compound 31 by using two 10-mL heparin sodium-containing vacuum blood collection tubes. For a control, 20 mL of blood was similarly collected from the vein of each subject one day before the administration of compound 31.
The collected PBMCs were stained with antibodies by the following method. First, 10 μL of a solution consisting of 20 μL of MACS buffer, 0.25 μL of APC-Cy7-anti-CD3 antibody (BioLegend, Inc.), 1 μL of PB-anti-CD4 antibody (BioLegend, Inc.), 1 μL of PerCP-Cy5.5-anti-CD45RA antibody (BioLegend, Inc.), and 1 μL of PC7-anti-CD56 antibody (Beckman Coulter, Inc.) was added to 6×10^6 cells of PBMCs, thoroughly mixed by vortexing, and then left on ice for 20 minutes. CD56 is a detection marker of cells having NK activity, and CD3^−CD56^− cells indicate being antigen-presenting cells (APCs). […]
mCD4T and APC obtained by the sorting were each suspended in a medium consisting of 500 mL of RPMI1640 (GIBCO/Thermo Fisher Scientific Inc.), 5 mL of glutamine (200 mM, Wako Pure Chemical Industries, Ltd.), 5 mL of Pen/strep (10,000 U/mL, GIBCO/Thermo Fisher Scientific Inc.), 0.5 mL of 2-mercaptoethanol (GIBCO/Thermo Fisher Scientific Inc.), and 50 mL of 10% (v/v) Cellect FETAL BOVINE SERUM (MP Biomedicals, LLC), and the number of cells was measured. […]
After the culture, a culture supernatant was collected, and IFN-γ, IL-4, IL-17, and GM-CSF were measured by the ELISA method. […]

On to `CCCCCCCCCCCCCCCCCCCCCCCC(=O)NC(COC1OC(CO)C(O)C(O)C1O)[C@H](O)C(O)CCCCC` (stereo in doubt) [compound 31, (2S,3S,4R)-1-O-(α-D-galactosyl)-2-(N-tetracosanoylamino)-1,3,4-nonanetriol], for which the IL-17 expression level by setting is: (day 8, MBP stimulation, day −1 value 916.90) 491.24; (day 8, OVA stimulation, day −1 value 666.56) 158.50. For the same molecule, under “day8 vs day-1”, the “change of expression level of IL-17” value is “decreased”.
